In PubChem BioAssay AID256 (DTP/NCI, 2004):
“And” between values parts separate entries of the source, which are not always exact repeats. Equal entries are not always repeated. Inconclusive results and toxic doses are left out.

Tested on: CD2F1 mice, L1210 leukemia ip, survival T/C
Experiment: NCI In Vivo Anticancer Drug Screen. Data for tumor model L1210 Leukemia (intraperitoneal) in CD2F1 (CDF1) mice
Conditions: endpoint: mean survival time, higher = longer survival
Summary of the method: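 Ratio T/C, where T is the treated-group value and C the vehicle-dosed control value, from mice implanted with a transplantable tumor.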

[1] = dose: 100.0 mg/kg/injection, schedule: Q04DX003 (ip), vehicle: saline with Tween-80
[2] = dose: 100.0 mg/kg/injection, schedule: Q01DX001 (ip), vehicle: saline
[3] = dose: 200.0 mg/kg/injection, schedule: Q01DX001 (ip), vehicle: saline
[4] = dose: 200.0 mg/kg/injection, schedule: Q04DX003 (ip), vehicle: saline with Tween-80
[5] = dose: 400.0 mg/kg/injection, schedule: Q04DX003 (ip), vehicle: saline with Tween-80
[6] = dose: 100.0 mg/kg/injection, schedule: Q01DX009 (ip), vehicle: saline with Tween-80
[7] = dose: 400.0 mg/kg/injection, schedule: Q01DX001 (ip), vehicle: saline
[8] = dose: 200.0 mg/kg/injection, schedule: Q01DX009 (ip), vehicle: saline with Tween-80
[9] = dose: 400.0 mg/kg/injection, schedule: Q01DX009 (ip), vehicle: saline with Tween-80
[10] = dose: 100.0 mg/kg/injection, schedule: Q01DX001 (ip), vehicle: saline with Tween-80
[11] = dose: 200.0 mg/kg/injection, schedule: Q01DX001 (ip), vehicle: saline with Tween-80
[12] = dose: 400.0 mg/kg/injection, schedule: Q01DX001 (ip), vehicle: saline with Tween-80
[13] = dose: 100.0 mg/kg/injection, schedule: Q01DX009 (ip), vehicle: Klucel (hydroxypropylcellulose) (HPC)
[14] = dose: 200.0 mg/kg/injection, schedule: Q01DX009 (ip), vehicle: Klucel (hydroxypropylcellulose) (HPC)

CSc1nccc2c1nnn2C1OC(CO)C(O)C1O (configuration not stated)
T/C (dose: 12.5 mg/kg/injection, schedule: Q01DX005 (ip), vehicle: other): 101 % of control
T/C (dose: 25.0 mg/kg/injection, schedule: Q01DX005 (ip), vehicle: other): 101 % of control
T/C (dose: 50.0 mg/kg/injection, schedule: Q01DX005 (ip), vehicle: other): 97 % of control
T/C (dose: 100.0 mg/kg/injection, schedule: Q01DX005 (ip), vehicle: other): 101 % of control
T/C (dose: 200.0 mg/kg/injection, schedule: Q01DX005 (ip), vehicle: other): 100 % of control

CC(=O)NN1C(=O)c2ccccc2C1=O
T/C (dose: 100.0 mg/kg/injection, schedule: Q04DX003 (ip), vehicle: Klucel (hydroxypropylcellulose) (HPC)): 98 % of control
T/C (dose: 200.0 mg/kg/injection, schedule: Q04DX003 (ip), vehicle: Klucel (hydroxypropylcellulose) (HPC)): 98 % of control
T/C (dose: 400.0 mg/kg/injection, schedule: Q04DX003 (ip), vehicle: Klucel (hydroxypropylcellulose) (HPC)): 98 % of control

COc1cc(NC(=O)Nc2ccccc2Cl)c(OC)cc1Cl
T/C (dose: 25.0 mg/kg/injection, schedule: Q04DX002 (ip), vehicle: saline with Tween-80): 98 % of control
T/C (dose: 50.0 mg/kg/injection, schedule: Q04DX002 (ip), vehicle: saline with Tween-80): 94 % of control
T/C (dose: 100.0 mg/kg/injection, schedule: Q04DX002 (ip), vehicle: saline with Tween-80): 102 % of control

O=C(O)Cc1c(Cl)n(-c2ccccc2)c2ccccc12
T/C (dose: 25.0 mg/kg/injection, schedule: Q04DX003 (ip), vehicle: saline with Tween-80): 96 % of control
T/C (dose: 50.0 mg/kg/injection, schedule: Q04DX003 (ip), vehicle: saline with Tween-80): 102 % of control
T/C [1]: 104 % of control

CNC(=S)SC
T/C (dose: 50.0 mg/kg/injection, schedule: Q01DX001 (ip), vehicle: saline): 98 % of control
T/C [2]: 102 % of control
T/C [3]: 104 % of control

N#CCCC1C(=O)CCCC1=O
T/C [1]: 105 % of control
T/C [4]: 89 % of control
T/C [5]: 97 % of control

O=C(c1ccc(O)cc1O)c1ccc(O)cc1O
T/C (dose: 50.0 mg/kg/injection, schedule: Q01DX009 (ip), vehicle: saline): 104 % of control
T/C (dose: 100.0 mg/kg/injection, schedule: Q01DX009 (ip), vehicle: saline): 96 % of control
T/C (dose: 200.0 mg/kg/injection, schedule: Q01DX009 (ip), vehicle: saline): 93 % of control

CCCSCC
T/C (dose: 25.0 mg/kg/injection, schedule: Q01DX009 (ip), vehicle: saline with Tween-80): 98 % of control
T/C (dose: 50.0 mg/kg/injection, schedule: Q01DX009 (ip), vehicle: saline with Tween-80): 106 % of control
T/C [6]: 95 % of control and 96 % of control

COc1ccc(/C=C/c2ccc([N+](=O)[O-])cc2)cc1
T/C [1]: 102 % of control
T/C [4]: 100 % of control
T/C [5]: 100 % of control

CCOC(=O)C(Cc1ccccc1)P(=O)(OCC)OCC (configuration not stated)
T/C [2]: 108 % of control
T/C [3]: 108 % of control
T/C [7]: 100 % of control

COc1ccc(Sc2cccc3c2C(=O)c2c(Sc4ccc(OC)cc4)cccc2C3=O)cc1
T/C [6]: 99 % of control
T/C [8]: 94 % of control
T/C [9]: 89 % of control

O=NN(Cc1cccnc1)Cc1cccnc1
T/C (dose: 75.0 mg/kg/injection, schedule: Q01DX001 (ip), vehicle: water): 102 % of control
T/C (dose: 150.0 mg/kg/injection, schedule: Q01DX001 (ip), vehicle: water): 102 % of control

Nc1cccc(/C=C/c2cccc([N+](=O)[O-])c2)c1
T/C (dose: 100.0 mg/kg/injection, schedule: Q04DX002 (ip), vehicle: Klucel (hydroxypropylcellulose) (HPC)): 98 % of control
T/C (dose: 200.0 mg/kg/injection, schedule: Q04DX002 (ip), vehicle: Klucel (hydroxypropylcellulose) (HPC)): 103 % of control
T/C (dose: 400.0 mg/kg/injection, schedule: Q04DX002 (ip), vehicle: Klucel (hydroxypropylcellulose) (HPC)): 103 % of control

CCC(C)CCCOC(=O)c1c(Cl)c(Cl)c(Cl)c(Cl)c1C(=O)O (configuration not stated)
T/C [2]: 106 % of control
T/C [3]: 112 % of control
T/C [7]: 102 % of control

CN(Cc1cnc2nc(N)nc(N)c2n1)c1ccc(C(=O)NC(CCC(=O)O)C(=O)NC(CCC(=O)O)C(=O)O)cc1 (configuration not stated)
T/C (dose: 1.0 mg/kg/injection, schedule: Q01DX009 (ip), vehicle: sodium bicarbonate): 105 % of control
T/C (dose: 2.0 mg/kg/injection, schedule: Q01DX009 (ip), vehicle: sodium bicarbonate): 100 % of control
T/C (dose: 5.0 mg/kg/injection, schedule: Q01DX009 (ip), vehicle: sodium bicarbonate): 102 % of control
T/C (dose: 25.0 mg/kg/injection, schedule: Q01DX009 (ip), vehicle: sodium bicarbonate): 167 % of control

C[n+]1ccc(Nc2ccc(NC(=O)c3ccc(Nc4cc[n+](C)c5ccc([N+](=O)[O-])cc45)cc3[N+](=O)[O-])cc2)cc1
T/C (dose: 79.0 mg/kg/injection, schedule: Q04DX003 (ip), vehicle: saline with Tween-80): 122 % of control
T/C [1]: 113 % of control
T/C (dose: 178.0 mg/kg/injection, schedule: Q04DX003 (ip), vehicle: saline with Tween-80): 152 % of control
T/C (dose: 266.0 mg/kg/injection, schedule: Q04DX003 (ip), vehicle: saline with Tween-80): 177 % of control and 187 % of control

CCCCCCCCCCOc1ccc(/C=N\N=C\c2ccc(OCCCCCCCCCC)cc2)cc1
T/C [1]: 94 % of control
T/C [4]: 94 % of control
T/C [5]: 92 % of control

O=[N+]([O-])c1c[c]([Hg][Cl])c(O)[c]([Hg][Cl])c1
T/C (dose: 12.5 mg/kg/injection, schedule: Q04DX003 (ip), vehicle: saline with Tween-80): 93 % of control

CCCCCOc1cc(C(C)=O)cc(OC)c1OC(=O)c1cc([N+](=O)[O-])cc([N+](=O)[O-])c1
T/C [10]: 112 % of control
T/C [11]: 90 % of control
T/C [12]: 93 % of control

Nc1ncnc2c1ncn2CCC(CO)CO
T/C [3]: 102 % of control
T/C [7]: 107 % of control

CCOC(=O)C(=Cc1ccc(O)c(OC)c1)C(=O)OCC
T/C [10]: 104 % of control
T/C [6]: 93 % of control
T/C [11]: 101 % of control
T/C [8]: 101 % of control
T/C [12]: 108 % of control
T/C [9]: 101 % of control

CC1(OC(=O)c2ccccc2)CC(C)(C)[N+]([O-])=N1 (configuration not stated)
T/C (dose: 25.0 mg/kg/injection, schedule: Q01DX009 (ip), vehicle: Klucel (hydroxypropylcellulose) (HPC)): 96 % of control
T/C (dose: 50.0 mg/kg/injection, schedule: Q01DX009 (ip), vehicle: Klucel (hydroxypropylcellulose) (HPC)): 96 % of control
T/C [13]: 100 % of control
T/C [14]: 91 % of control

O=[N+]([O-])c1ccc(O/N=C(\CN2CCOCC2)c2ccc(Cl)cc2)c([N+](=O)[O-])c1
T/C [1]: 94 % of control
T/C [4]: 86 % of control
T/C [5]: 90 % of control

NC(=O)c1[nH]cnc1NN=NCCF
T/C (dose: 25.0 mg/kg/injection, schedule: Q01DX001 (ip), vehicle: Klucel (hydroxypropylcellulose) (HPC)): 320 % of control

O=[N+]([O-])c1ccc(N=Cc2ccc3c(c2)OCO3)cc1
T/C (dose: 100.0 mg/kg/injection, schedule: Q01DX001 (ip), vehicle: Klucel (hydroxypropylcellulose) (HPC)): 106 % of control
T/C [13]: 96 % of control
T/C (dose: 200.0 mg/kg/injection, schedule: Q01DX001 (ip), vehicle: Klucel (hydroxypropylcellulose) (HPC)): 101 % of control
T/C [14]: 97 % of control
T/C (dose: 400.0 mg/kg/injection, schedule: Q01DX001 (ip), vehicle: Klucel (hydroxypropylcellulose) (HPC)): 96 % of control
T/C (dose: 400.0 mg/kg/injection, schedule: Q01DX009 (ip), vehicle: Klucel (hydroxypropylcellulose) (HPC)): 96 % of control

C=[CH][Pb]([CH]=C)([O]C(=O)C(C)C)[O]C(=O)C(C)C
T/C (dose: 5.0 mg/kg/injection, schedule: Q01DX009 (ip), vehicle: saline with Tween-80): 93 % of control
T/C (dose: 10.0 mg/kg/injection, schedule: Q01DX009 (ip), vehicle: saline with Tween-80): 95 % of control

CO[C@@]12[C@@H]3N[C@@H]3CN1C1=C(C(=O)C(NCCc3ccc(O)cc3)=C(C)C1=O)[C@@H]2COC(N)=O
T/C (dose: 1.5 mg/kg/injection, schedule: Q01DX001 (ip), vehicle: water): 102 % of control
T/C (dose: 3.0 mg/kg/injection, schedule: Q01DX001 (ip), vehicle: water): 104 % of control and 111 % of control
T/C (dose: 6.0 mg/kg/injection, schedule: Q01DX001 (ip), vehicle: water): 111 % of control
T/C (dose: 12.0 mg/kg/injection, schedule: Q01DX001 (ip), vehicle: water): 115 % of control
T/C (dose: 48.0 mg/kg/injection, schedule: Q01DX001 (ip), vehicle: water): 151 % of control

Cc1nc(C)c(CCO)c(=O)[nH]1
T/C [1]: 97 % of control
T/C [4]: 101 % of control
T/C [5]: 103 % of control

CCc1ccc(O[Si](C)(C)C)cc1
T/C [1]: 97 % of control
T/C [4]: 99 % of control
